Laboratory results reported in PubChem BioAssay AID1963436 (Molecular Pharmacology Branch, DTP, NCI, 2024).

Tested on: OVCAR-5 complex spheroid (HUVEC/MSC), viability % T/C
Experiment: Anticancer human tumor OVCAR-5 cell line growth inhibition [Asc];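 also: spheroids exposed to agents for 7 days before readout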;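 as to viability, T/C: 100% = DMSO vehicle-treated wells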
Conditions: for IC50: curve of first compound; for viability, T/C: stronger effect = lower value
Procedure, shortened: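 Tumor cells were grown as complex spheroids with human endothelial cells (HUVEC) and human mesenchymal stem cells as stroma. Agents were tested alone and in combination, in half-log steps down from the clinical Cmax, or from 10 microM where Cmax was unknown.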

For Cc1nc(N2CCC3(CC2)COC(C)C3N)c(CO)nc1Sc1ccnc(N)c1Cl (stereo not given) + CCN1C(C(=O)NC23CCC(C(=O)O)(CC2)CC3)C(c2cccc(Cl)c2F)C2(C(=O)Nc3cc(Cl)ccc32)C12CCCCC2, the IC50 (second compound 0.03 µM) was greater than 3000 nM, the IC50 (second compound 0.0949 µM) was greater than 3000 nM and the IC50 (second compound 0.3 µM) was greater than 3000 nM. It also gave an IC50 (second compound 0.949 µM) greater than 3000 nM, an IC50 (second compound 3 µM) greater than 3000 nM and a viability, T/C (second compound 0.03 µM, first compound 0.00949 µM) of 104%. It also gave a viability, T/C (second compound 0.03 µM, first compound 0.03 µM) of 101%, a viability, T/C (second compound 0.03 µM, first compound 0.0949 µM) of 79.8% and a viability, T/C (second compound 0.03 µM, first compound 0.3 µM) of 79.8%. For the same compound, the viability, T/C (second compound 0.03 µM, first compound 0.949 µM) was 71.4%, the viability, T/C (second compound 0.03 µM, first compound 3 µM) was 60.6% and the viability, T/C (second compound 0.0949 µM, first compound 0.00949 µM) was 108%. For the same compound, the viability, T/C (second compound 0.0949 µM, first compound 0.03 µM) was 97.1%, the viability, T/C (second compound 0.0949 µM, first compound 0.0949 µM) was 89.4% and the viability, T/C (second compound 0.0949 µM, first compound 0.3 µM) was 82%. The viability, T/C (second compound 0.0949 µM, first compound 0.949 µM) was 70.8%, the viability, T/C (second compound 0.0949 µM, first compound 3 µM) was 56% and the viability, T/C (second compound 0.3 µM, first compound 0.00949 µM) was 112%. The viability, T/C (second compound 0.3 µM, first compound 0.03 µM) was 105%, the viability, T/C (second compound 0.3 µM, first compound 0.0949 µM) was 86.1% and the viability, T/C (second compound 0.3 µM, first compound 0.3 µM) was 72.4%. For the same compound, the viability, T/C (second compound 0.3 µM, first compound 0.949 µM) was 64.2%, the viability, T/C (second compound 0.3 µM, first compound 3 µM) was 60.8% and the viability, T/C (second compound 0.949 µM, first compound 0.00949 µM) was 107%. The viability, T/C (second compound 0.949 µM, first compound 0.03 µM) was 105%, the viability, T/C (second compound 0.949 µM, first compound 0.0949 µM) was 96.3% and the viability, T/C (second compound 0.949 µM, first compound 0.3 µM) was 73.6%. It also gave a viability, T/C (second compound 0.949 µM, first compound 0.949 µM) of 69.5%, a viability, T/C (second compound 0.949 µM, first compound 3 µM) of 70.3% and a viability, T/C (second compound 3 µM, first compound 0.00949 µM) of 104%. For the same compound, the viability, T/C (second compound 3 µM, first compound 0.03 µM) was 110%, the viability, T/C (second compound 3 µM, first compound 0.0949 µM) was 99.3% and the viability, T/C (second compound 3 µM, first compound 0.3 µM) was 79%. For the same compound, the viability, T/C (second compound 3 µM, first compound 0.949 µM) was 68.4% and the viability, T/C (second compound 3 µM, first compound 3 µM) was 65.9%.

Cn1ncnc1[C@H]1c2n[nH]c(=O)c3cc(F)cc(c23)N[C@@H]1c1ccc(F)cc1 + Cc1c(S(C)(=O)=O)c(-c2cc(F)cc(N3CCN(c4ccc(NS(=O)(=O)c5ccc(NC(CCN6CCC(C(=O)OCCCP(=O)(O)O)CC6)CSc6ccccc6)c(S(=O)(=O)C(F)(F)F)c5)cc4)CC3)c2)c(-c2ccc(Cl)cc2)n1C(C)C showed an IC50 (second compound 0.1 µM) greater than 100 nM, an IC50 (second compound 0.316 µM) greater than 100 nM and an IC50 (second compound 1 µM) greater than 100 nM. For the same compound, the IC50 (second compound 3.16 µM) was greater than 100 nM, the IC50 (second compound 10 µM) was greater than 100 nM and the viability, T/C (second compound 0.1 µM, first compound 0.000316 µM) was 99%. It also gave a viability, T/C (second compound 0.1 µM, first compound 0.001 µM) of 101%, a viability, T/C (second compound 0.1 µM, first compound 0.00316 µM) of 100% and a viability, T/C (second compound 0.1 µM, first compound 0.01 µM) of 82.9%. The viability, T/C (second compound 0.1 µM, first compound 0.0316 µM) was 86%, the viability, T/C (second compound 0.1 µM, first compound 0.1 µM) was 91.1% and the viability, T/C (second compound 0.316 µM, first compound 0.000316 µM) was 96.3%. It also gave a viability, T/C (second compound 0.316 µM, first compound 0.001 µM) of 95%, a viability, T/C (second compound 0.316 µM, first compound 0.00316 µM) of 97% and a viability, T/C (second compound 0.316 µM, first compound 0.01 µM) of 89.7%. For the same compound, the viability, T/C (second compound 0.316 µM, first compound 0.0316 µM) was 89.1%, the viability, T/C (second compound 0.316 µM, first compound 0.1 µM) was 74.2% and the viability, T/C (second compound 1 µM, first compound 0.000316 µM) was 96.7%. For the same compound, the viability, T/C (second compound 1 µM, first compound 0.001 µM) was 110%, the viability, T/C (second compound 1 µM, first compound 0.00316 µM) was 100% and the viability, T/C (second compound 1 µM, first compound 0.01 µM) was 91.7%. It also gave a viability, T/C (second compound 1 µM, first compound 0.0316 µM) of 76.5%, a viability, T/C (second compound 1 µM, first compound 0.1 µM) of 89.2% and a viability, T/C (second compound 3.16 µM, first compound 0.000316 µM) of 88.1%. For the same compound, the viability, T/C (second compound 3.16 µM, first compound 0.001 µM) was 90.9%, the viability, T/C (second compound 3.16 µM, first compound 0.00316 µM) was 91.2% and the viability, T/C (second compound 3.16 µM, first compound 0.01 µM) was 70.1%. The viability, T/C (second compound 3.16 µM, first compound 0.0316 µM) was 87.9%, the viability, T/C (second compound 3.16 µM, first compound 0.1 µM) was 76.9% and the viability, T/C (second compound 10 µM, first compound 0.000316 µM) was 117%. The viability, T/C (second compound 10 µM, first compound 0.001 µM) was 138%, the viability, T/C (second compound 10 µM, first compound 0.00316 µM) was 133% and the viability, T/C (second compound 10 µM, first compound 0.01 µM) was 110%. For the same compound, the viability, T/C (second compound 10 µM, first compound 0.0316 µM) was 97.9% and the viability, T/C (second compound 10 µM, first compound 0.1 µM) was 102%.

Compound O=C(c1ccc(F)c(F)c1Nc1ccc(I)cc1F)N1CC(O)([C@@H]2CCCCN2)C1 + CCN1C(C(=O)NC23CCC(C(=O)O)(CC2)CC3)C(c2cccc(Cl)c2F)C2(C(=O)Nc3cc(Cl)ccc32)C12CCCCC2 has an IC50 (second compound 0.03 µM) of 96.2 nM, an IC50 (second compound 0.0949 µM) of 81.4 nM and an IC50 (second compound 0.3 µM) of 83.6 nM. It also gave an IC50 (second compound 0.949 µM) of 81.6 nM, an IC50 (second compound 3 µM) of 56.2 nM and a viability, T/C (second compound 0.03 µM, first compound 0.00316 µM) of 90.3%. For the same compound, the viability, T/C (second compound 0.03 µM, first compound 0.01 µM) was 88.7%, the viability, T/C (second compound 0.03 µM, first compound 0.0316 µM) was 68.4% and the viability, T/C (second compound 0.03 µM, first compound 0.1 µM) was 49.4%. For the same compound, the viability, T/C (second compound 0.03 µM, first compound 0.316 µM) was 41.6%, the viability, T/C (second compound 0.03 µM, first compound 1 µM) was 34.6% and the viability, T/C (second compound 0.0949 µM, first compound 0.00316 µM) was 99.7%. It also gave a viability, T/C (second compound 0.0949 µM, first compound 0.01 µM) of 92.9%, a viability, T/C (second compound 0.0949 µM, first compound 0.0316 µM) of 66.8% and a viability, T/C (second compound 0.0949 µM, first compound 0.1 µM) of 45.5%. The viability, T/C (second compound 0.0949 µM, first compound 0.316 µM) was 42.9%, the viability, T/C (second compound 0.0949 µM, first compound 1 µM) was 32.1% and the viability, T/C (second compound 0.3 µM, first compound 0.00316 µM) was 94.9%. The viability, T/C (second compound 0.3 µM, first compound 0.01 µM) was 87.8%, the viability, T/C (second compound 0.3 µM, first compound 0.0316 µM) was 66.3% and the viability, T/C (second compound 0.3 µM, first compound 0.1 µM) was 45.4%. The viability, T/C (second compound 0.3 µM, first compound 0.316 µM) was 43.9%, the viability, T/C (second compound 0.3 µM, first compound 1 µM) was 33.2% and the viability, T/C (second compound 0.949 µM, first compound 0.00316 µM) was 87.3%. The viability, T/C (second compound 0.949 µM, first compound 0.01 µM) was 86.3%, the viability, T/C (second compound 0.949 µM, first compound 0.0316 µM) was 64.2% and the viability, T/C (second compound 0.949 µM, first compound 0.1 µM) was 46.8%. The viability, T/C (second compound 0.949 µM, first compound 0.316 µM) was 40%, the viability, T/C (second compound 0.949 µM, first compound 1 µM) was 32% and the viability, T/C (second compound 3 µM, first compound 0.00316 µM) was 97.4%. For the same compound, the viability, T/C (second compound 3 µM, first compound 0.01 µM) was 89.2%, the viability, T/C (second compound 3 µM, first compound 0.0316 µM) was 61.5% and the viability, T/C (second compound 3 µM, first compound 0.1 µM) was 37.6%. For the same compound, the viability, T/C (second compound 3 µM, first compound 0.316 µM) was 37% and the viability, T/C (second compound 3 µM, first compound 1 µM) was 28.8%.
